Experimental data from EP4667466A1, “PROTAC DEGRADERS OF MLLT1 AND/OR MLLT3” (priority 2024, dated 2025).

Columns and labels:
[1] = molecular target: T1, MLLT1 (Homo sapiens, UniProt Q03111); assay: MLLT1 degradation assay (JESS automated chemiluminescent detection) in MV4-11 cells; type: cell-based; conditions: 24h, with respect to DMSO control
T1 construct: endogenous in cells; host or cells: MV4-11 (ATCC CRL-9591)
T1 sequence (Q03111 1-559): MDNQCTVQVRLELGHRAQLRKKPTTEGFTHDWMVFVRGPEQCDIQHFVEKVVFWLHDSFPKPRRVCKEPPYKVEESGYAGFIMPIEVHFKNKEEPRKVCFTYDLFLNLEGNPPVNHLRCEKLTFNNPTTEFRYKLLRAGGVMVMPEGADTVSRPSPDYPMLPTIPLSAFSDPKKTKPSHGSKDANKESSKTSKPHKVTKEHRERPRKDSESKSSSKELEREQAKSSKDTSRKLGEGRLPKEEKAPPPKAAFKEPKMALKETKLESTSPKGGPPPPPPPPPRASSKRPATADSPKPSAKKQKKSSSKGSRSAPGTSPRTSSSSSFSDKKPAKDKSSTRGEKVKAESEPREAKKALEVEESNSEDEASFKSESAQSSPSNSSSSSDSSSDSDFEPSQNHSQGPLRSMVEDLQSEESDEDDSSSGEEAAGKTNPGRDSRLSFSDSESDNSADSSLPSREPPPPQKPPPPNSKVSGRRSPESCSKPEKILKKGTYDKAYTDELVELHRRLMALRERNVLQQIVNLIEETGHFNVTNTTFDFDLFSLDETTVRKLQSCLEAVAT
Outline: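 MV4-11 cells were treated with 1000, 100 or 10 nM compound (0.1% DMSO) for 24 h at 37 °C. Lysates (4 µg protein) were probed for MLLT1 and GAPDH by JESS capillary chemiluminescence. Degradation was calculated from band peak areas versus DMSO control and binned into categories A–D.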

[2] = test system: MV4-11 cells; assay: MV4-11 cellular proliferation assay, Assay Format A (CellTiter-Glo, 120 hours); type: cell-based; conditions: Homo sapiens, Assay method A, read-out: MV4-11 antiproliferative IC50
Protocol: An MV4-11 proliferation assay was used to test the ability of compounds to reduce cell viability.
After 120 hours of treatment, cells were incubated for 10 min at RT with the CellTiter-Glo (CTG) reagent (G7571, Promega). Measurement of the luminescence signal was performed on a microplate reader (Ensight, PerkinElmer). CTG reagent measures the amount of ATP, which is directly proportional to the number of cells, to determine the number of viable cells in culture.
The data were analysed as follows: Data normalization, N(x) = (x−〈cr〉)/(〈sr〉−〈cr〉) × 100 [formula] where x is the measured raw signal value of a well, (cr) is the median of the measured signal values for the Central Reference (DMSO) wells on a plate, (sr) is the median of the measured signal values for the Scale Reference (reference compound) wells on a plate. Curve fitting, S0 + (Sinf −S0)/(1 + (((AC50)/(10^c)))^n) [formula] where the experimental set-up assumes the Hill parameters in certain ranges: S0 ~ Central Reference (CR) from normalization (= Bottom), Sinf ~ Scale Reference (SR) from normalization (= Top), nHill ~ 1, AC50 ~ within the measured concentration range.

Compound | inhibition at 0.01 µM [1] [%] | inhibition at 0.1 µM [1] [%] | inhibition at 1 µM [1] [%] | IC50 [2] [nM]
Cc1nn(CCCCCCNc2cccc3c2C(=O)N(C2CCC(=O)NC2=O)C3=O)c2cc(C(=O)Nc3cc4[nH]c([C@H]5CCCN5C)cc4cn3)ccc12 (stereo partly drawn) [Example 22, 1-(6-{[2-(2,6-dioxopiperidin-3-yl)-1,3-dioxoisoindol-4-yl]amino}hexyl)-3-methyl-N-{2-[(2R)-1-methylpyrrolidin-2-yl]-1H-pyrrolo[3,2-c]pyridin-6-yl}indazole-6-carboxamide] | ≥ 75 | ≥ 75 | ≥ 75 | 8
[2H]C([2H])([2H])N1CCC[C@@H]1c1cc2cnc(NC(=O)c3ccc4c(C)nn(CCCCCCCC#Cc5cccc6c5CN(C5CCC(=O)NC5=O)C6=O)c4c3)cc2[nH]1 (stereo partly drawn) [Example 44, 1-(9-(2-(2,6-dioxopiperidin-3-yl)-1-oxoisoindolin-4-yl)non-8-yn-1-yl)-3-methyl-N-(2-((R)-1-(methyl-d3)pyrrolidin-2-yl)-1H-pyrrolo[3,2-c]pyridin-6-yl)-1H-indazole-6-carboxamide] | 50 to 75 | ≥ 75 | ≥ 75 | 5
Cc1nn(CCCCCCCC#Cc2cccc3c2CN(C2CCC(=O)NC2=O)C3=O)c2cc(C(=O)Nc3cc4[nH]c([C@H]5CCCN5C)cc4cn3)ccc12 (mixture of isomers) [Example 1, 1-(9-(2-(2,6-dioxopiperidin-3-yl)-1-oxoisoindolin-4-yl)non-8-yn-1-yl)-3-methyl-N-(2-((R)-1-methylpyrrolidin-2-yl)-1H-pyrrolo[3,2-c]pyridin-6-yl)-1H-indazole-6-carboxamide] | ≥ 75 | ≥ 75 | ≥ 75 | 4
Cc1nn(CCOCCOCCNc2cccc3c2C(=O)N(C2CCC(=O)NC2=O)C3=O)c2cc(C(=O)Nc3cc4[nH]c([C@H]5CCCN5C)cc4cn3)ccc12 (stereo partly drawn) [Example 25, 1-(2-(2-(2-((2-(2,6-dioxopiperidin-3-yl)-1,3-dioxoisoindolin-4-yl)amino)ethoxy)ethoxy)ethyl)-3-methyl-N-(2-((R)-1-methylpyrrolidin-2-yl)-1H-pyrrolo[3,2-c]pyridin-6-yl)-1H-indazole-6-carboxamide] |  | ≥ 75 | ≥ 75 | 11
Cc1nn(CCCCCCCCNc2ccc3c(c2)C(=O)N(C2CCC(=O)NC2=O)C3=O)c2cc(C(=O)Nc3cc4[nH]c([C@@H]5CCCN5C)cc4cn3)ccc12 (stereo partly drawn) [Example 15, 1-(8-{[2-(2,6-dioxopiperidin-3-yl)-1,3-dioxoisoindol-5-yl]amino}octyl)-3-methyl-N-{2-[(2S)-1-methylpyrrolidin-2-yl]-1H-pyrrolo[3,2-c]pyridin-6-yl}indazole-6-carboxamide] | < 25 | ≥ 75 | ≥ 75 | 12
Cc1nn(CCCCNc2cccc3c2C(=O)N(C2CCC(=O)NC2=O)C3=O)c2cc(C(=O)Nc3cc4[nH]c([C@H]5CCCN5C)cc4cn3)ccc12 (stereo partly drawn) [Example 21, 1-(4-((2-(2,6-dioxopiperidin-3-yl)-1,3-dioxoisoindolin-4-yl)amino)butyl)-3-methyl-N-(2-((R)-1-methylpyrrolidin-2-yl)-1H-pyrrolo[3,2-c]pyridin-6-yl)-1H-indazole-6-carboxamide] | ≥ 75 | ≥ 75 | ≥ 75 | 11
Cc1nn(CCCCCC#Cc2cccc3c2CN(C2CCC(=O)NC2=O)C3=O)c2cc(C(=O)Nc3cc4[nH]c([C@H]5CCCN5C)cc4cn3)ccc12 (stereo partly drawn) [Example 30, 1-(7-(2-(2,6-dioxopiperidin-3-yl)-1-oxoisoindolin-4-yl)hept-6-yn-1-yl)-3-methyl-N-(2-((R)-1-methylpyrrolidin-2-yl)-1H-pyrrolo [3,2-c]pyridin-6-yl)-1H-indazole-6-carboxamide] | ≥ 75 | ≥ 75 | ≥ 75 | 6
Cc1nn(CCOCCNc2cccc3c2C(=O)N(C2CCC(=O)NC2=O)C3=O)c2cc(C(=O)Nc3cc4[nH]c([C@H]5CCCN5C)cc4cn3)ccc12 (stereo partly drawn) [Example 26, 1-(2-(2-((2-(2,6-dioxopiperidin-3-yl)-1,3-dioxoisoindolin-4yl)amino)ethoxy)ethyl)-3-methyl-N-(2-((R)-1-methylpyrrolidin-2-yl)-1H-pyrrolo[3,2-c]pyridin-6-yl)-1H-indazole-6-carboxamide] |  | ≥ 75 | ≥ 75 | 14
Cc1nn(CCCCCCC#Cc2cccc3c2CN(C2CCC(=O)NC2=O)C3=O)c2cc(C(=O)Nc3cc4[nH]c([C@H]5CCCN5C)cc4cn3)ccc12 (stereo partly drawn) [Example 45, 1-(8-(2-(2,6-dioxopiperidin-3-yl)-1-oxoisoindolin-4-yl)oct-7-yn-1-yl)-3-methyl-N-(2-((R)-1-methylpyrrolidin-2-yl)-1H-pyrrolo[3,2-c]pyridin-6-yl)-1H-indazole-6-carboxamide] | ≥ 75 | ≥ 75 | ≥ 75 | 10
Cc1nn(CCCC#Cc2cccc3c2CN(C2CCC(=O)NC2=O)C3=O)c2cc(C(=O)Nc3cc4[nH]c([C@H]5CCCN5C)cc4cn3)ccc12 (stereo partly drawn) [Example 32, 1-(5-(2-(2,6-dioxopiperidin-3-yl)-1-oxoisoindolin-4-yl)pent-4-yn-1-yl)-3-methyl-N-(2-((R)-1-methylpyrrolidin-2-yl)-1H-pyrrolo[3,2-c]pyridin-6-yl)-1H-indazole-6-carboxamide] | 50 to 75 | ≥ 75 | 50 to 75 | 15
Cc1nn(CCCCCCCCNc2cccc3c2CN(C2CCC(=O)NC2=O)C3=O)c2cc(C(=O)Nc3cc4[nH]c([C@H]5CCCN5C)cc4cn3)ccc12 (stereo partly drawn) [Example 16, 1-(8-{[2-(2,6-dioxopiperidin-3-yl)-1-oxo-3H-isoindol-4-yl]amino}octyl)-3-methyl-N-{2-[(2R)-1-methylpyrrolidin-2-yl]-1H-pyrrolo[3,2-c]pyridin-6-yl}indazole-6-carboxamide] | ≥ 75 | ≥ 75 | ≥ 75 | 9
Cc1nn(CCCCC#Cc2cccc3c2CN(C2CCC(=O)NC2=O)C3=O)c2cc(C(=O)Nc3cc4[nH]c([C@H]5CCCN5C)cc4cn3)ccc12 (stereo partly drawn) [Example 46, 1-(6-(2-(2,6-dioxopiperidin-3-yl)-1-oxoisoindolin-4-yl)hex-5-yn-1-yl)-3-methyl-N-(2-((R)-1-methylpyrrolidin-2-yl)-1H-pyrrolo[3.2-c]pyridin-6-yl)-1H-indazole-6-carboxamide] | ≥ 75 | ≥ 75 | 50 to 75 | 7
Cc1nn(CCOCCN2CCN(c3cc4c(cc3F)C(=O)N(C3CCC(=O)NC3=O)C4=O)CC2)c2cc(C(=O)Nc3cc4[nH]c([C@H]5CCCN5C)cc4cn3)ccc12 (stereo partly drawn) [Example 24, 1-(2-(2-(4-(2-(2,6-dioxopiperidin-3-yl)-6-fluoro-1,3-dioxoisoindolin-5-yl)piperazin-1-yl)ethoxy)ethyl)-3-methyl-N-(2-((R)-1-methylpyrrolidin-2-yl)-1H-pyrrolo[3,2-c]pyridin-6-yl)-1H-indazole-6-carboxamide] |  | 50 to 75 | ≥ 75 | 
